Experimental data: the NIST ThermoML archive (doi:10.1016/j.jct.2017.03.006)

Test: xn = mol fraction of the nth substance listed
Settings: Liquid; for viscosity: Concentric cylinders viscometry; for mass density: Vibrating tube method

Cc1ccc(C)c(C)c1 [1,2,4-trimethylbenzene] + CCC(C)O
Settings	mass density [kg/m3]	viscosity [mPa·s]
323.15 K, 100 kPa, x2 = 0.7001	–	0.78
323.15 K, 100 kPa, x2 = 0.7997	–	0.88
323.15 K, 100 kPa, x2 = 0.9001	–	1.04
333.15 K, 100 kPa, x2 = 0	843.6	0.562
333.15 K, 100 kPa, x2 = 0.1	835.7	–
333.15 K, 100 kPa, x2 = 0.1001	–	0.558
333.15 K, 100 kPa, x2 = 0.1989	829.2	–
333.15 K, 100 kPa, x2 = 0.2261	–	0.554
333.15 K, 100 kPa, x2 = 0.3	–	0.548
333.15 K, 100 kPa, x2 = 0.3011	822.5	–
333.15 K, 100 kPa, x2 = 0.3966	–	0.568
333.15 K, 100 kPa, x2 = 0.4002	816	–
333.15 K, 100 kPa, x2 = 0.5001	809.8	–
333.15 K, 100 kPa, x2 = 0.5298	–	0.567
333.15 K, 100 kPa, x2 = 0.5997	802.2	–
333.15 K, 100 kPa, x2 = 0.6001	–	0.6
333.15 K, 100 kPa, x2 = 0.6999	794.7	–
333.15 K, 100 kPa, x2 = 0.7001	–	0.65
333.15 K, 100 kPa, x2 = 0.7997	–	0.72
333.15 K, 100 kPa, x2 = 0.7999	787.1	–
333.15 K, 100 kPa, x2 = 0.9	779.1	–
333.15 K, 100 kPa, x2 = 0.9001	–	0.82
333.15 K, 1000 kPa, x2 = 0	844.4	–
333.15 K, 1000 kPa, x2 = 0.1	836.5	–
333.15 K, 1000 kPa, x2 = 0.1989	830	–
333.15 K, 1000 kPa, x2 = 0.3011	823.3	–
333.15 K, 1000 kPa, x2 = 0.4002	816.8	–
333.15 K, 1000 kPa, x2 = 0.5001	810.7	–
333.15 K, 1000 kPa, x2 = 0.5997	803.1	–
333.15 K, 1000 kPa, x2 = 0.6999	795.6	–
333.15 K, 1000 kPa, x2 = 0.7999	788	–
333.15 K, 1000 kPa, x2 = 0.9	780	–
333.15 K, 2000 kPa, x2 = 0	845.2	–
333.15 K, 2000 kPa, x2 = 0.1	837.4	–
333.15 K, 2000 kPa, x2 = 0.1989	830.9	–
333.15 K, 2000 kPa, x2 = 0.3011	824.2	–
333.15 K, 2000 kPa, x2 = 0.4002	817.8	–
333.15 K, 2000 kPa, x2 = 0.5001	811.7	–
333.15 K, 2000 kPa, x2 = 0.5997	804	–
333.15 K, 2000 kPa, x2 = 0.6999	796.6	–
333.15 K, 2000 kPa, x2 = 0.7999	789	–
333.15 K, 2000 kPa, x2 = 0.9	781	–
333.15 K, 5000 kPa, x2 = 0	847.6	–
333.15 K, 5000 kPa, x2 = 0.1	840	–
333.15 K, 5000 kPa, x2 = 0.1989	833.5	–
333.15 K, 5000 kPa, x2 = 0.3011	826.9	–
333.15 K, 5000 kPa, x2 = 0.4002	820.4	–
333.15 K, 5000 kPa, x2 = 0.5001	814.4	–
333.15 K, 5000 kPa, x2 = 0.5997	806.9	–
333.15 K, 5000 kPa, x2 = 0.6999	799.5	–
333.15 K, 5000 kPa, x2 = 0.7999	791.9	–
333.15 K, 5000 kPa, x2 = 0.9	784	–
333.15 K, 10000 kPa, x2 = 0	851.4	–
333.15 K, 10000 kPa, x2 = 0.1	843.9	–
333.15 K, 10000 kPa, x2 = 0.1989	837.6	–
333.15 K, 10000 kPa, x2 = 0.3011	831.1	–
333.15 K, 10000 kPa, x2 = 0.4002	824.7	–
333.15 K, 10000 kPa, x2 = 0.5001	818.7	–
333.15 K, 10000 kPa, x2 = 0.5997	811.3	–
333.15 K, 10000 kPa, x2 = 0.6999	803.9	–
333.15 K, 10000 kPa, x2 = 0.7999	796.5	–
333.15 K, 10000 kPa, x2 = 0.9	788.6	–
333.15 K, 15000 kPa, x2 = 0	855.1	–
333.15 K, 15000 kPa, x2 = 0.1	847.9	–
333.15 K, 15000 kPa, x2 = 0.1989	841.6	–
333.15 K, 15000 kPa, x2 = 0.3011	835.1	–
333.15 K, 15000 kPa, x2 = 0.4002	828.8	–
333.15 K, 15000 kPa, x2 = 0.5001	822.9	–
333.15 K, 15000 kPa, x2 = 0.5997	815.5	–
333.15 K, 15000 kPa, x2 = 0.6999	808.2	–
333.15 K, 15000 kPa, x2 = 0.7999	800.8	–
333.15 K, 15000 kPa, x2 = 0.9	793	–
333.15 K, 20000 kPa, x2 = 0	858.6	–
333.15 K, 20000 kPa, x2 = 0.1	851.6	–
333.15 K, 20000 kPa, x2 = 0.1989	845.4	–
333.15 K, 20000 kPa, x2 = 0.3011	839	–
333.15 K, 20000 kPa, x2 = 0.4002	832.7	–
333.15 K, 20000 kPa, x2 = 0.5001	826.9	–
333.15 K, 20000 kPa, x2 = 0.5997	819.5	–
333.15 K, 20000 kPa, x2 = 0.6999	812.3	–
333.15 K, 20000 kPa, x2 = 0.7999	805	–
333.15 K, 20000 kPa, x2 = 0.9	797.2	–
333.15 K, 30000 kPa, x2 = 0	865.3	–
333.15 K, 30000 kPa, x2 = 0.1	858.6	–
333.15 K, 30000 kPa, x2 = 0.1989	852.5	–
333.15 K, 30000 kPa, x2 = 0.3011	846.2	–
333.15 K, 30000 kPa, x2 = 0.4002	840.1	–
333.15 K, 30000 kPa, x2 = 0.5001	834.4	–
333.15 K, 30000 kPa, x2 = 0.5997	827.1	–
333.15 K, 30000 kPa, x2 = 0.6999	819.9	–
333.15 K, 30000 kPa, x2 = 0.7999	812.7	–
333.15 K, 30000 kPa, x2 = 0.9	805	–
333.15 K, 40000 kPa, x2 = 0	871.6	–
333.15 K, 40000 kPa, x2 = 0.1	865.1	–
333.15 K, 40000 kPa, x2 = 0.1989	859.1	–
333.15 K, 40000 kPa, x2 = 0.3011	852.9	–
333.15 K, 40000 kPa, x2 = 0.4002	846.8	–
333.15 K, 40000 kPa, x2 = 0.5001	841.2	–
333.15 K, 40000 kPa, x2 = 0.5997	834.1	–
333.15 K, 40000 kPa, x2 = 0.6999	826.9	–
